Measured values published in US20240083949A1, “CELL PENETRATING PEPTIDE COMPOSITIONS AND METHODS THEREOF” (The Regents of the University of California, priority 2022, published 2024).
Entries after “also recorded” stand apart in the source; their conditions may differ. Positions of bridges follow the written chain, without caps; N, C: chain ends. Non-standard residues stand in square brackets, D forms with d. Lys(N3) = [N-]=[N+]=NCCCC[C@H](N)C(=O)O; Pra = C#CC[C@H](N)C(=O)O

Columns and labels:
U87 cells [1] = assay: Endocytosis inhibitors treatment, RB-EPP6 uptake by flow cytometry; type: cell-based, human; conditions: 500 nM RB-EPP6, flow cytometry
Procedure: (§1) Flow cytometry experiments. To measure the RB signal intensity, a NovoCyte flow cytometer (NovoExpress) was used. Quantification of fluorescence intensity in each condition was performed using Novoxpress software. Fifty thousand cells were analyzed for each condition. A green, fluorescent dye used in DNA staining, YOYO was included in all the flow cytometry experiments, serving as a cell live/dead indicator. For the YOYO only group, the cells were treated with trypsin for 5-10 min. After that, cells were fixed in a 1.5 ml centrifuge tube using 4% paraformaldehyde at room temperature for 15 min. Subsequently, fixed cells were washed with PBS once and was permeabilized using 90% cold MeOH on ice for 15 min. Then, cells were incubated with YOYO in phenol-free medium. After half an hour, cells were centrifuged to get rid of YOYO solution and resuspended in fresh phenol-free medium before doing flow cytometry.
Endocytosis inhibitors treatment. U87 Cells were incubated with different endocytosis inhibitors for 1 h respectively. Afterwards, old medium was replaced with medium containing 500 nM RB-EPP 6. After 1 h, a trypsin-EDTA solution (0.05%, Sigma) was added to detach the cells. The cells were collected by centrifugation. Fresh phenol-free medium was added to each condition. Once resuspended, cells were filtered into glass tubes before flow cytometry.

a = assay: a
From the text: Table printed on a drawing sheet, FIGURES 7A-7B
The patent's description of the figure: FIGS. 7A-7B. (FIG. 7a) PAMPA assay results of EPPs.
First reader's note: Panel a of the sheet; per the description these are PAMPA permeability results, and panel b is a bar graph of the same values.

different cell lines = assay: RB-EPP6 uptake in different cell lines (confocal imaging); type: cell-based
From the text: Cell lines and cell culture. The human glioblastoma cell line (U87) was gifted from Prof. Wei Wei (Institute For Systems Biology, Seattle). The human monocytic leukemia cell line (THP-1) and the human T-cell leukemia cell line (Jurkat) were purchased from ATCC. The human embryonic kidney cell line (HEK-293T), the human osteosarcoma cell line (U2OS), the human breast cancer cell line (MCF-7), the human metastatic melanoma cell lines (IGR-37, IGR-39, WM266-4 and WM115), the human cervical carcinoma cell line (HeLa), and the human myelogenous leukemia cell line (K562) were gifted from Prof. Yinsheng Wang (UC Riverside). The non-tumorigenic epithelial cell line (MCF 10A) and the human breast adenocarcinoma cell line (MDA-MB-231) were gifted from Prof. Wenwan Zhong (UC Riverside). The canine epithelial kidney cell line (MDCK) and the African green monkey kidney cell line (Vero) were gifted from Prof. Hai Rong (UC Riverside). The human colon carcinoma cell line (HCT116) was gifted from Prof. Xuan Liu (UC Riverside). The human liver carcinoma cell line (HEPG2), the rat liver cell line (MCA7777) and the mouse sarcoma cell line (J774A.1) were gifted from Prof. Joseph Genereux (UC Riverside).
Confocal Imaging experiments. […] Quantification of fluorescence intensity in single cells was performed using Fiji software. […]

U87 cells [2] = assay: Confocal imaging of Dye-EPP uptake in U87 cells; type: cell-based, human; conditions: for ability to enter the cells (intracellular fluorescence): RB-tagged EPPs, ranking among EPP1-7
Procedure: Confocal Imaging experiments. To image the cells, a Zeiss 880 inverted confocal laser scanning microscope (Carl Zeiss, Germany) was used. Image acquisition and analyses were carried out using the manufacturer's software (ZEN, Carl Zeiss). Quantification of fluorescence intensity in single cells was performed using Fiji software.
Dye-EPP incubation. For general incubation, 300 k U87 cells were seeded in full medium containing 10% FBS and 1% PS in a 35×10 mm petri dish. The cells were incubated overnight in full medium. Stock solution of Dye-EPPs were made in DMSO to reach a concentration of 500 μM. Fresh cell culture medium was used to dilute the stock solution to 500 nM and replace the old medium on day 2. Cells were incubated with RB-EPPs for different time periods, followed by a one-time wash with phenol-free fresh culture medium before measurements.
Concentration gradient experiment. U87 Cells were incubated with RB-EPP 6 at different concentrations (20 nM, 200 nM, 2 μM, 20 μM, 50 μM and 100 μM). After wash with fresh medium once cells were examined by confocal imaging.

[3] = Octanol-water partition assay; type: physicochemical
Procedure: Octanol-water partition assay. For each RB-EPP, pre-mix 250 μl of octanol with 250 μl of water in a 1.5 ml centrifuge tube. 2 μl of RB-EPP was added to the solution at the concentration of 500 μM. After vortex the mixture, centrifuge at the highest speed for 10 min to separate the octanol and water phases. Samples were collected from both phases and quantified by the Analytical HPLC separately.

U87 cells [4] = assay: Heparin binding assay, RB-EPP6 uptake by flow cytometry; type: cell-based, human; conditions: heparin 10-200 μg/ml
Procedure: as §1, with “cytometry. Heparin binding assay. […] A trypsin-EDTA solution (0.05%, Sigma) was added to detach the cells. The cells were collected by centrifugation. Fresh phenol-free medium was added to each condition. Once resuspended, cells were filtered into glass tubes before flow cytometry.” for “cytometry.”

FIBCD1 = biological target: T1, FIBCD1 (Homo sapiens, UniProt Q8N539); assay: FIBCD1 competition assay; type: cell-based; conditions: U87 cells, 500 nM RB-EPP6, flow cytometry
T1 construct: endogenous in cells; host or cells: U87 human glioblastoma cells
T1 sequence (Q8N539 1-461): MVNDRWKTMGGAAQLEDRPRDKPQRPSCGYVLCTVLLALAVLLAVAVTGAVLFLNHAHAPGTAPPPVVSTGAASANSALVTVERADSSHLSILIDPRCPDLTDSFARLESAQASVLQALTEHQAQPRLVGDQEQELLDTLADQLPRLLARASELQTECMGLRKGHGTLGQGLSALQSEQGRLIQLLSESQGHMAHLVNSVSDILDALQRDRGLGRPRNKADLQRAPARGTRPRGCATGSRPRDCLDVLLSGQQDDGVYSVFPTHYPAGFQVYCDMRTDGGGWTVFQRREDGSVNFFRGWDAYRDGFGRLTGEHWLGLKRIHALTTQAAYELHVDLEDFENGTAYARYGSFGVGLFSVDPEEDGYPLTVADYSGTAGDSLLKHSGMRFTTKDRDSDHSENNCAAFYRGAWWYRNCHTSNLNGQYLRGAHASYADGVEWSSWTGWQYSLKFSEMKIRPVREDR
Procedure: as §1
FIBCD1 competition assay. U87 cells were incubated with 500 nM RB-EPP 6 and YOYO, together with FIBCD1 ligands, sodium acetate (SA) at 3.1 mM (1×) and acetylmannosamine (AMA) at 1.6 mM (1×) respectively. After 1 h, trypsin was added to detach the cells. Cell pallets were collected by centrifugation. Fresh phenol-free medium was added to each condition. Once resuspended, cells were filtered into glass tubes before flow cytometry.

With `c1ccc2c(c1)Nc1ccccc1S2` [phenothazine] as the compound, how does the “effect of inhibitor on RB-EPP6 uptake” value (U87 cells [1]) read?
The value was “did not affect the uptake”.

For `C=C1[C@@H](C)[C@H]2[C@H](Cc3ccccc3)NC(=O)[C@]23[C@H](OC(C)=O)/C=C/[C@@](C)(O)C(=O)[C@@H](C)C/C=C/[C@H]3[C@@H]1O` [cytochalasin D], which “effect of inhibitor on RB-EPP6 uptake” value (U87 cells [1]) is on record?
Its value is “significantly decreased”.

For “c[Pra-Tyr-Ser-Tyr-Tyr-Ser-Az4] ([Pra]YSYYS[Lys(N3)]; triazole N-C) [EPP6] [listing 1 of 2 here]”, which “Pe” value (a) is on record?
The value was 0.234 ×10⁻⁶ cm/s.

Which “uptake in different cell lines” value (different cell lines) does the source give for “c[Pra-Tyr-Ser-Tyr-Tyr-Ser-Az4] ([Pra]YSYYS[Lys(N3)]; triazole N-C) [EPP6] [listing 2 of 2 here]” here?
Its value is “able to enter a wide array of human cancer and noncancer cells, as well as non-human cells”.

What about the “delivery of different fluorescent dye cargo molecules” value (U87 cells [2]; EPP6 conjugated to different dyes incl. AF555 and AF647, U87 cells) of the same compound?
Its value is “could bring all these cargo molecules into U87 cells”.

And the “fluorescence intensity in the cells compared with TAT peptide” value (U87 cells [2]; RB tag, U87 cells, confocal imaging)?
The value was ~2 ×.

And the “ability to enter the cells (intracellular fluorescence)” value (U87 cells [2]; U87 cells, confocal imaging)?
Its value is “highest efficiency”.

And the “concentration-dependent uptake (fluorescence signal)” value (U87 cells [2]; U87 cells, 20 nM to 100 μM)?
Its value is “higher fluorescence signals across a wide range”.

Which “effect of inhibitor on RB-EPP6 uptake” value (U87 cells [1]) does the source give for `O=C(N/N=C/c1ccc(O)c(O)c1)c1cc2ccccc2cc1O` [Dynasore] here?
Its value is “almost completely suppressed”.

For RB-cy(YTYYT) [RB-EPP3], which “hydrophobicity (octanol partitioning)” value [3] is on record?
The value was “most hydrophobic”.

And the “ability to enter the cells (intracellular fluorescence)” value (U87 cells [2]; U87 cells, confocal imaging)?
Its value is “worst”.

For heparin, which “effect of heparin on RB-EPP6 uptake” value (U87 cells [4]) is on record?
The value was “did not affect; also recorded: no inhibitory effect”.

Which “Pe” value (a) does the source give for “c[Pra-Ser-Tyr-Tyr-Ser-Tyr-Az4] ([Pra]SYYSY[Lys(N3)]; triazole N-C) [EPP7]” here?
Its value is 0.63243 ×10⁻⁶ cm/s.

Which “effect of inhibitor on RB-EPP6 uptake” value (U87 cells [1]) does the source give for methyl-β-cyclodextrin here?
The value was “did not inhibit”.

With `O=C1NC(=NS(=O)(=O)c2cccc3ccccc23)S/C1=C\c1ccc(Br)cc1` [Pitstop 2] as the compound, how does the “effect of inhibitor on RB-EPP6 uptake” value (U87 cells [1]) read?
The value was “did not affect the uptake”.

For cy(YYTYT) [EPP1], which “Pe” value (a) is on record?
Its value is 0.16201 ×10⁻⁶ cm/s.

Which “effect of inhibitor on RB-EPP6 uptake” value (U87 cells [1]) does the source give for `CCCCC[C@@H](O)[C@H]1C(=O)O[C@H](C)[C@@H](O)/C=C/C=C/C=C/C=C/C=C(\C)[C@@H](O)C[C@H](O)C[C@H](O)C[C@H](O)C[C@H](O)C[C@H](O)C[C@@H]1O` [filipin] here?
The value was “did not inhibit”.

For cy(TTTTT) [EPP5], which “Pe” value (a) is on record?
The value was 1.8954 ×10⁻⁶ cm/s.

For “c[Pra-Thr-Tyr-Tyr-Thr-Tyr-Az4] ([Pra]TYYTY[Lys(N3)]; triazole N-C) [EPP2]”, which “Pe” value (a) is on record?
Its value is 0.46872 ×10⁻⁶ cm/s.

With “c[Pra-Tyr-Thr-Tyr-Tyr-Thr-Az4] ([Pra]YTYYT[Lys(N3)]; triazole N-C) [EPP3]” as the compound, how does the “Pe” value (a) read?
The value was 0.11206 ×10⁻⁶ cm/s.

Which “effect of FIBCD1 ligand on RB-EPP6 uptake” value (FIBCD1) does the source give for `CC(=O)NC1C(O)OC(CO)C(O)C1O` (stereo not drawn) [acetylmannosamine] here?
Its value is “inhibit RB-EPP6 uptake in a concentration-dependent manner”.
